Source: patent US8581584B2, “Membrane proteins, mechanisms of action and uses thereof” (priority 2010, dated 2013)

Target: M2 conductance domain (residues 22-62) (Influenza A virus, UniProt P0DOF5, C50S)
Assay type: biochemical, influenza A Udorn/1972 virus

## NC12CC3CC(CC(C3)C1)C2 [amantadine]
  blockage of proton uptake: ~80%
  proton flux, initial slope of proton uptake per tetramer vs time: 30 protons per tetramer per second
